Here are results for 2 compounds from patent US20240307345A1, “R-MDMA and S-MDMA TO ASSIST PSYCHOTHERAPY” (Universitatsspital Basel, priority 2022, published 2024).

Entries after “also recorded” stand apart in the source; their conditions may differ.

Data set [1] has as its system healthy subjects. In words: Alteration of mind and mystical-type effects on 5D-ASC and MEQ questionnaires. The format is in vivo, human. Conditions: for acute mystical-type experiences on the 5D-ASC scale: 24 subjects. The protocol: (§1) Study design: The present study compares the acute subjective, physiological and endocrine effects of S-MDMA (125 mg), R-MDMA (125 and 250 mg), MDMA (125 mg) using a placebo-controlled double-blind 5-period cross-over design in 24 healthy subjects. Conditions are 1.) R-MDMA 125 mg, 2). R-MDMA 250 mg, 3) S-MDMA 125 mg, 4) MDMA 125 mg, 5) placebo. Treatment order is counterbalanced. Washout periods between substance administrations are at least 10 days. Study days include a 10-hour study session with a subsequent single measurement (short visit) the next morning (24 hours after drug administration).
Psychometric assessments: Visual Analog Scale (VAS): VASs is repeatedly used to assess subjective alterations in consciousness over time. Single scales are presented as 100 mm horizontal lines marked with “not at all” on the left and “extremely” on the right. The following VAS items are used: “any drug effect”, “good drug effect”, “bad drug effect”, “stimulated”, “liking”, “happy”, “content”, “talkative”, “open”, “trust”, “feeling close to others”, “anxiety”, “alteration of vision”, “alterations of hearing”, “sounds seem to influence what I see”, “alteration of sense of time”, “the boundaries between myself and my surroundings seem to blur”, “want to be with other people”, and “want to be alone”. Scales are administered before and repeatedly after substance administration and take approximately 2 minutes to fill out. The maximal ratings (Emax, 0-100) and areas under the effect-time curve (AUEC) are defined for each VAS and Emax and AUEC values compared between treatments using analysis of variance. 5-Dimensions of Altered States of Consciousness (5D-ASC): The 5 Dimensions of Altered States of Consciousness (5D-ASC) Scale is a questionnaire containing visual analog scales for 94 items (Studerus et al., 2010). The instrument contains five scales assessing mood, anxiety, derealization, depersonalization, changes in perception, auditory alterations, and reduced vigilance. The scale is well-validated (Studerus et al., 2010) and used internationally to evaluate effects of many other psychoactive substances. The overall psychedelic experience is reflected by the total […] score. Each item of the scale is scored on a 0-100 mm VAS. The attribution of the individual items to the subscales of the 5D-ASC is analyzed according to (Studerus et al., 2010). The 5D-ASC scale is administered once at the end of the session and subjects are instructed to retrospectively rate peak alterations that have been experienced during the study session. Adiective Mood Rating Scale (AMRS): The Adjective Mood Rating Scale (AMRS or EWL60S) is a 60-item Likert scale that allows repeated assessment of mood in 6 dimensions: Activation, inactivation, well-being, anxiety/depressed mood, extra- and introversion, and emotional excitability. The German EWL60S version is used. The AMRS consists of subscales measuring “activation,” “positive mood,” “extraversion,” “introversion,” “inactivation,” and “emotional excitability. The scale has previously been used to evaluate effects of many other psychoactive substances. Emax and AUEC scores will be defined for each subscale and compared between treatments using analysis of variance. The AMRS is administered repeatedly throughout the study session and once 3 days after each session. States of Consciousness Questionnaire (SCQ): In the SCQ, 100-items are rated on a six-point scale. Forty-three items embedded into this questionnaire comprise the Mystical Experience Questionnaire (MEQ) (MacLean et al., 2011) which is sensitive to the effects of psychedelic substances such as LSD. […]

The test system of data set [2] is rodents. Conditions: relative to racemic MDMA; cited from earlier work.
Data set [3] relates to healthy subjects. Put plainly: Mood after effects day 1-3 (BDI score, SCL-90-R GSI score). The format is in vivo, human. Here is the method:
as §1
Psychometric assessments: Visual Analog Scale (VAS): VASs is repeatedly used to assess subjective alterations in consciousness over time. Single scales are presented as 100 mm horizontal lines marked with “not at all” on the left and “extremely” on the right. […] Each item of the scale is scored on a 0-100 mm VAS. The attribution of the individual items to the subscales of the 5D-ASC is analyzed according to (Studerus et al., 2010). […]

Data set [4] has as its system healthy subjects. In words: Autonomic effects (blood pressure, heart rate, body temperature). The format is in vivo, human. The protocol:
as §1
Autonomic measures: Blood pressure, heart rate, and body temperature are recorded at baseline and repeatedly throughout the session. Blood pressure (systolic and diastolic) and heart rate are measured with an automatic oscillometric device. Body temperature is measured with an ear thermometer. Emax is determined for each of the measures and for each study session. These Emax values are then compared between drug conditions using analysis of variance.

The test system of data set [5] is mice. Conditions: cited from earlier work.
[6] abbreviates: 125 mg, compared with placebo (and 125 mg R-MDMA).

`CN[C@H](C)Cc1ccc2c(c1)OCO2` [R-MDMA, R(−)-MDMA]: the “acute mystical-type experiences on the 5D-ASC scale” value in data set [1] (125 mg) was “only significantly induced mystical-type effects on the 5D-ASC total score and the “Reductions of vigilance” scale”; in data set [1] (250 mg) it was “comparable effects with no significant differences”. Further, the “psychedelic effects on the 5D-ASC and the MEQ questionnaires” value was “only significantly induced the 5D-ASC total score and the dimension “Reductions of vigilance” on the 5D-ASC and “positive mood”, “Ineffability” and the MEQ30 total score” in data set [1] (setting [6]); “comparable and overall greater psychedelic effects” in data set [1] (250 mg, compared with placebo and 125 mg R-MDMA). In data set [2], the “potency for locomotor stimulant effects” value is “clearly less potent than racemic MDMA”. In data set [3] (R-MDMA compared with S-MDMA), the mood after administration result is “did not depress mood after administration”. The body temperature entry in data set [4] (125 mg) was “did not increase body temperature significantly compared to placebo”; in data set [4] (250 mg) it was “increased similarly; also recorded: increased body temperature as much as (±)-MDMA and S-MDMA; also recorded: increased body temperature only moderately”. In addition, in data set [4] (250 mg, versus placebo), the heart rate result is “increase heart rate comparably and more than with placebo”. For the same compound, the “duration of discriminative stimulus effects” value in data set [5] is recorded as “shortest”.

As to `CN[C@@H](C)Cc1ccc2c(c1)OCO2` [S-MDMA, S(+)-MDMA], the “acute mystical-type experiences on the 5D-ASC scale” value in data set [1] (125 mg) is “comparable effects with no significant differences”. For the same compound, the “psychedelic effects on the 5D-ASC and the MEQ questionnaires” value in data set [1] (setting [6]) was “comparable and overall greater psychedelic effects”. The “potency for locomotor stimulant effects” value in data set [2] is on record as “mostly equipotent to racemic MDMA”. Besides, in data set [3] (125 mg, one to three days after substance administration), the “BDI and GSI scores” value is listed as “only increased”. Also, the body temperature result in data set [4] (125 mg) is on record as “increased similarly; also recorded: increased body temperature only moderately”. Moreover, the “increases in blood pressure” value in data set [4] (125 mg S-MDMA versus (±)-MDMA and both doses of R-MDMA) was “higher increases”. Also, the heart rate result in data set [4] (125 mg S-MDMA versus the other substance conditions) was “only significantly higher compared with 125 mg of R-MDMA”; in data set [4] (125 mg, versus placebo), “increase heart rate comparably and more than with placebo”. In data set [5] (compared with R-MDMA), the “onset of interoceptive effects” value was “faster”.
